Test results taken from patent publication US9126945B2, “N-(3-carbamoylphenly)-1H-pyrazole-5-carboxamide derivatives and the use thereof for controlling animal pests” (BAYER INTELLECTUAL PROPERTY GMBH, priority 2011, dated 2015).

What was measured:
Tetranychus urticae = assay: Tetranychus test, OP-resistant (TETRUR spray treatment), bean leaf discs; format: in vivo; conditions: for efficacy in %: application rate 500 g/ha, after 6 days
Procedure: Tetranychus Test, OP-Resistant (TETRUR Spray Treatment)
After a time of 6 days, the efficacy in % is determined.

[1] = log P by HPLC, EEC Directive 79/831 Annex V.A8, method a); format: physicochemical
Procedure: (§1) ^a) Note regarding the determination of the log P values and mass detection The determination of the given log P values was carried out in accordance with EEC Directive 79/831 Annex V.A8 by HPLC (High Performance Liquid Chromatography) on a reversed-phase column (C18). Agilent 1100 LC system; 50*4.6 Zorbax Eclipse Plus C18 1.8 micron; mobile phase A: acetonitrile (0.1% formic acid); mobile phase B: water (0.09% formic acid); linear gradient from 10% acetonitrile to 95% acetonitrile in 4.25 min, then 95% acetonitrile for a further 1.25 min; oven temperature 55° C.; flow rate: 2.0 ml/min Mass detection is via an Agilend MSD system.
as §1, with “mass detection:” for “mass detection”, “2.0 ml/min.” for “2.0 ml/min”

Phaedon cochleariae [2] = assay: Phaedon test (PHAECO spray treatment), Chinese cabbage leaf discs; conditions: for efficacy in %: application rate 500 g/ha, after 7 days
Spodoptera frugiperda = Spodoptera frugiperda test (SPODFR spray treatment), maize leaf discs; format: in vivo; conditions: application rate 500 g/ha; after 7 days
Source text: Spodoptera frugiperda Test (SPODFR Spray Treatment)

Myzus persicae = assay: Myzus test (MYZUPE spray treatment); format: in vivo; conditions: for efficacy in %: application rate 500 g/ha, after 6 days; for inhibition at 100 g/ha / inhibition at 20 g/ha: Myzus persicae, 144 h
Procedure: Myzus test (Myzupe spray treatment)
After 6 days, the efficacy in % is determined.
Myzus Test (MYZUPE Spray Treatment)

Ctenocephalides felis = Ctenocephalides felis oral (CTECFE); format: in vivo
Procedure: Ctenocephalides felis Oral (CTECFE)
Solvent: 1 part by weight of dimethyl sulphoxide
For the purpose of producing a suitable preparation of active compound, 10 mg of active compound are mixed with 0.5 ml of dimethyl sulphoxide. A portion of the concentrate is diluted with citrated cattle blood, and the desired concentration is prepared.
(§2) About 20 unfed adult fleas (Ctenocephalides felis) are placed into a chamber which is closed at the top and bottom with gauze. A metal cylinder whose bottom end is closed with parafilm is placed onto the chamber. The cylinder contains the blood/active compound preparation, which can be taken up by the fleas through the parafilm membrane. After 2 days, the kill in % is determined.
For the purpose of preparing an appropriate active compound formulation, 10 mg of active compound are mixed with 0.5 ml of dimethyl sulphoxide. A portion of the concentrate is diluted with citrated cattle blood, and the desired concentration is prepared.
as §2, with “membrane.” for “membrane. After 2 days, the kill in % is determined.”

Boophilus microplus = Boophilus microplus test (BOOPMI injection); format: in vivo; conditions: for % Activity dat: BOOPMI injection, 7 dat
Procedure: Boophilus microplus Test (BOOPMI Injection)
(§3) Solvent: dimethyl sulphoxide
The active compound solution is injected into the abdomen (Boophilus microplus), and the animals are transferred into dishes and stored in a climate-controlled room. The activity is assessed by laying of fertile eggs.
The active compound solution is injected into the abdomen (Boophilus microplus), and the animals are transferred into dishes and stored in a climate-controlled room.
The activity is assessed by laying of fertile eggs. 100% means that none of the ticks has laid any fertile eggs.

Phaedon cochleariae [3] = assay: Phaedon cochleariae spray test (PHAECO), cabbage leaves, ppm; format: in vivo; conditions: 168 h, 7 dat
Source text: Phaedon cochleariae Spray Test (PHAECO)
Solvent: 7 parts by weight of dimethylformamide
Emulsifier: 2 parts by weight of alkylaryl polyglycol ether
(§4) If the addition of ammonium salts or/and penetrants is required, these are in each case added in a concentration of 1000 ppm to the solution of the preparation.

Nilaparvata lugens = Nilaparvata lugens spray test (NILALU); format: in vivo
Source text: Nilaparvata lugens Spray Test (NILALU)
as §4

[4] = test system: Boophilus microplus females of the SP-resistant Parkhurst strain; assay: Boophilus microplus test (DIP); format: in vivo; conditions: Rhipicephalus microplus, 168 h, BOOPMI DIP, 7 dat
Procedure: Boophilus microplus Test (DIP)
Test animals: adult engorged Boophilus microplus females of the SP-resistant Parkhurst strain
as §3
10 mg of active compound are dissolved in 0.5 ml of dimethyl sulphoxide. For the purpose of preparing a suitable formulation, the active compound solution is diluted with water to the concentration desired in each case.
This active compound preparation is pipetted into tubes. 8-10 ticks are transferred into a further tube with holes. The tube is immersed into the active compound formulation, and all ticks are completely wetted. After the liquid has rum off, the ticks are transferred to filter discs in plastic dishes and kept in a climatized room. The activity is assessed after 7 days by laying of fertile eggs. Eggs whose fertility is not outwardly visible are stored in glass tubes in a climate-controlled cabinet until the larvae hatch. An efficacy of 100% means that none of the ticks has laid any fertile eggs.
10 mg of active compound are dissolved in 0.5 ml of dimethyl sulphoxide. For the purpose of preparing a suitable formulation, the active compound solution is diluted with water to the concentration desired in each case (in ppm).
This active compound preparation is pipetted into tubes. 8-10 ticks are transferred into a further tube with holes. The tube is immersed into the active compound formulation, and all ticks are completely wetted. After the liquid has run out, the ticks are transferred onto filter discs in plastic dishes and stored in a climate-controlled room.
The activity is assessed after the desired time by laying of fertile eggs. Eggs whose fertility is not evident from the outside are kept in glass tubes in a climate-controlled cabinet until the larvae have hatched. An effect of 100% means that none of the ticks has laid any fertile eggs.

[5] = reversed-phase C18 HPLC column; HPLC-MS method a), reversed-phase C18, acetonitrile/water with formic acid
[6] = cell marked a): HPLC, reversed-phase C18, acetonitrile/water with formic acid, gradient 10% to 95% acetonitrile
[7] = Tetranychus urticae, foliar, 144 h, TETRUR, 6 dat
[8] = cell prints no method mark; Ex. 40 value equals the log P given under method a)

Cn1nc(C2(F)CC2)c(Br)c1C(=O)Nc1ccc(Cl)c(C(=O)NC2(C#N)CC2)c1 [Example 1, 4-Bromo-N-{4-chloro-3-[(1-cyanocyclopropyl)carbamoyl]phenyl}-3-(1-fluorocyclopropyl)-1-methyl-1H-pyrazole-5-carboxamide]
efficacy in % (Tetranychus urticae): 100% | chromatographic logP [1, 5]: 2.5 | efficacy in % (Phaedon cochleariae [2]): 100%

CN(C(=O)c1c(C(F)(F)F)c(C(F)(F)F)nn1C)c1ccc(Cl)c(C(=O)NC2(C#N)CC2)c1 [Example 2, N-{4-Chloro-3-[(1-cyanocyclopropyl)carbamoyl]phenyl}-N,1-dimethyl-3,4-bis(trifluoromethyl)-1H-pyrazole-5-carboxamide]
efficacy in % (Spodoptera frugiperda): 100% | efficacy in % (Myzus persicae): 100% | efficacy in % (Tetranychus urticae): 100% | kill in % (effect) (Ctenocephalides felis; 100 ppm, after 2 days): 100% | efficacy in % (laying of fertile eggs) (Boophilus microplus; 20 μg/animal, after 7 days): 100% | chromatographic logP [1, 5]: 2.81 | efficacy in % (Phaedon cochleariae [2]): 100%

CN(C(=O)c1c(Cl)c(C2(Cl)CC2)nn1C)c1ccc(Cl)c(C(=O)NC2(C#N)CC2)c1 [Example 3]
efficacy in % (Tetranychus urticae): 100% | logP [1, 6]: 2.46 ^a) | efficacy in % (Phaedon cochleariae [2]): 100%

CCN(C(=O)c1cc(N(C)C(=O)c2c(C(F)(F)F)c(C(F)(F)C(F)(F)F)nn2C)ccc1Cl)C1(C#N)CC1 [Example 4]
efficacy in % (Spodoptera frugiperda): 100% | efficacy in % (Myzus persicae): 100% | efficacy in % (Tetranychus urticae): 100% | logP [1, 6]: 3.77 ^a) | efficacy in % (Phaedon cochleariae [2]): 100%

CN(C(=O)c1c(C(F)(F)F)c(C(F)(F)C(F)(F)F)nn1C)c1ccc(Cl)c(C(=O)N(C)C2(C#N)CC2)c1 [Example 5]
efficacy in % (Spodoptera frugiperda): 100% | efficacy in % (Myzus persicae): 90% | efficacy in % (Tetranychus urticae): 100% | logP [1, 6]: 3.59 ^a) | efficacy in % (Phaedon cochleariae [2]): 100%

Cn1nc(C(F)(F)C(F)(F)F)c(C(F)(F)F)c1C(=O)Nc1ccc(Br)c(C(=O)NC2(C#N)CC2)c1 [Example 14]
% Activity dat (Myzus persicae; MYZUPE, 100 g/ha, 6 dat): 100 6 dat 100 6 dat % | inhibition at 100 g/ha (Myzus persicae; MYZUPE, 100 g/ha, 6 dat): 100% | inhibition at 100 g/ha (Tetranychus urticae; [7]): 100% | inhibition at 4 ppm (Phaedon cochleariae [3]): 100% | inhibition at 500 g/ha (Nilaparvata lugens; 96 h, 4 dat): 80% | chromatographic logP ([1]; reversed-phase HPLC column (C18); cell prints no method mark; Ex. 40 value equals the log P given under method a)): 3.31

C#CCn1nc(C(F)(F)C(F)(F)F)c(C(F)(F)F)c1C(=O)Nc1ccc(Cl)c(C(=O)NC2(C#N)CC2)c1 [Example 57]
logP [1, 8]: 3.58

C=CCn1nc(C(F)(F)C(F)(F)F)c(C(F)(F)F)c1C(=O)Nc1ccc(Cl)c(C(=O)NC2(C#N)CC2)c1 [Example 58]
logP [1, 8]: 3.65

Cn1nc(C(F)(F)C(F)(F)F)c(C(F)(F)F)c1C(=O)Nc1cc(F)c(Br)c(C(=O)NC2(C#N)CC2)c1 [Example 59]
logP [1, 8]: 3.58

CCC(=O)N(C(=O)c1c(C(F)(F)F)c(C(F)(F)C(F)(F)F)nn1C)c1ccc(Cl)c(C(=O)N(C(=O)CC)C2(C#N)CC2)c1 [Example 60]
logP [1, 8]: 4.68

CCN(C(=O)c1cc(NC(=O)c2c(C(F)(F)F)c(C(F)(F)C(F)(F)F)nn2C)ccc1Cl)C1(C#N)CC1 [Example 61]
logP [1, 8]: 3.86

CN(C(=O)c1cc(NC(=O)c2c(C(F)(F)F)c(C(F)(F)C(F)(F)F)nn2C)ccc1Cl)C1(C#N)CC1 [Example 62]
logP [1, 8]: 3.66

CC(C)OC(=O)N(C(=O)c1c(C(F)(F)F)c(C(F)(F)C(F)(F)F)nn1C)c1ccc(Cl)c(C(=O)NC2(C#N)CC2)c1 [Example 63]
logP [1, 8]: 4.19

N#CC1(NC(=O)c2cc(NC(=O)c3c(C(F)(F)F)c(C(F)(F)C(F)(F)F)nn3CC(F)(F)F)ccc2Cl)CC1 [Example 64]
logP [1, 8]: 3.60

CCN(C(=O)c1c(C(F)(F)F)c(C(F)(F)C(F)(F)F)nn1C)c1ccc(Cl)c(C(=O)NC2CC2)c1 [Ik-136, reference compound]
inhibition at 20 g/ha (Myzus persicae; MYZUPE, 6 dat): 0% | inhibition at 20 g/ha (Tetranychus urticae; Tetranychus urticae, foliar, 144 h, TETRUR, 20 g/ha, 6 dat): 0% | inhibition at 0.8 ppm (Ctenocephalides felis; Ctenocephalides felis, po, 48 h, CTECFE, 0.8 ppm, 2 dat): 30% | % Activity dat (Boophilus microplus; 0.032 μg/animal): 0% | inhibition at 20 ppm ([4]; 20 ppm): 0% | inhibition at 0.8 ppm (Phaedon cochleariae [3]; 0.8 ppm): 0% | inhibition at 20 g/ha (Nilaparvata lugens; 168 h, 20 g/ha, 7 dat): 0%

Cn1nc(C(F)(F)C(F)(F)F)c(C(F)(F)F)c1C(=O)Nc1ccc(F)c(C(=O)NC2CC2)c1 [Ik-155, reference compound]
inhibition at 100 g/ha (Myzus persicae; MYZUPE, 100 g/ha, 6 dat): 0% | inhibition at 100 g/ha (Tetranychus urticae; [7]): 0%

Cn1nc(C(F)(F)C(F)(F)F)c(C(F)(F)F)c1C(=O)Nc1ccc(Br)c(C(=O)NC2CC2)c1 [Ik-175, reference compound]
inhibition at 100 g/ha (Myzus persicae; MYZUPE, 100 g/ha, 6 dat): 0% | inhibition at 4 ppm (Phaedon cochleariae [3]): 10% | inhibition at 500 g/ha (Nilaparvata lugens; 168 h, 7 dat): 0%

CCC1CC1NC(=O)c1cc(NC(=O)c2c(C(F)(F)F)c(C(F)(F)C(F)(F)F)nn2C)ccc1Cl (stereo not drawn) [Ik-286, reference compound]
inhibition at 20 g/ha (Myzus persicae; MYZUPE, 6 dat): 0% | inhibition at 4 ppm (Ctenocephalides felis; Ctenocephalides felis, po, 48 h, CTECFE, 4 ppm, 2 dat): 0% | % Activity dat (Boophilus microplus; 0.16 μg/animal): 20% | inhibition at 100 ppm ([4]; 100 ppm): 40% | inhibition at 100 g/ha (Phaedon cochleariae [2]; Phaedon cochleariae, in Brassica rapa, foliar, 168 h, read-out: % Activity dat): 0%

COC(=O)c1c(SC)c(C(F)(F)C(F)(F)F)nn1C [methyl 1-methyl-4-(methylsulphanyl)-3-(pentafluoroethyl)-1H-pyrazole-5-carboxylate]
chromatographic logP [1, 5]: 3.51

COC(=O)c1c([N+](=O)[O-])c(C(F)(F)C(F)(F)F)nn1C [methyl 1-methyl-4-nitro-3-(pentafluoroethyl)-1H-pyrazole-5-carboxylate]
chromatographic logP [1, 5]: 3.18

COC(=O)c1c(N)c(C(F)(F)C(F)(F)F)nn1C [methyl 4-amino-1-methyl-3-(pentafluoroethyl)-1H-pyrazole-5-carboxylate]
chromatographic logP [1, 5]: 2.52
